Assay results from PMC6211257, “Synthesis and cytotoxic activities of novel copper and silver complexes of 1,3-diaryltriazene-substituted sulfonamides” (Journal of Enzyme Inhibition and Medicinal Chemistry, 2018).
Several values for one entry are separate records, joined by “and”; a condition that tells them apart may be missing. Equal entries are not always repeated.

tested on: human colorectal adenocarcinoma (DLD-1) cells; assay: MTT cytotoxicity assay, DLD-1; format: cell-based; conditions: Homo sapiens, DLD-1, cancer cell, 48 h, means of three independent experiments
From the text: (§1) The cells studied were obtained from the American Type Culture Collection (ATCC, Manassas, VA), and included human colorectal adenocarcinoma (DLD-1), cervix carcinoma (HeLa), breast adenocarcinoma (MDA-MB-231), colon adenocarcinoma (HT-29), endometrial adenocarcinoma (ECC-1), prostate cancer (DU-145 and PC-3), normal embryonic kidney (HEK-293), normal prostate epithelium (PNT-1A), and normal retinal pigment epithelium (ARPE-19) cells. As recommended by ATCC, cells were subjected to propagation using DMEM-F12 and RPMI-1640 media, with supplements 10% fetal bovine serum, L-glutamine (2 mM), penicillin (100 U/mL) and streptomycin ([…]) in a humidified atmosphere (5% CO2) at 37 °C. When the cultures reached 70–80% confluence, the cells were harvested using 0.25% trypsin (Sigma).
(§2) Cytotoxic activities were based on the reduction of (3–(4,5-dimethylthiazol-2-yl)-2,5-diphenyltetrazolium bromide) (MTT) by mitochondrial dehydrogenase of viable cells to give a blue formazan product which can be measured spectrophotometrically by UV–Vis measurements. MTT colorimetric assays were performed using 96 well plates. The cells were seeded in a 96 well plate at concentration 5.0 × 10^4 cells/well and incubated at 37 °C for 24 h. After treatment with various concentrations of the test compound (1, 5, 10, 25, 50, 100 and 200 μM), the cells were incubated for an additional 48 h at 37 °C. After incubation, the medium was removed, and the cells in each well were incubated with 100 μL MTT solution (5 mg/mL) for 4 h at 37 °C. MTT solutions were then discarded, and 100 μL DMSO were added to dissolve insoluble formazan crystals. Optical densities were measured at 570 nm (Varioskan Flash Multimode Reader, Thermo, Waltham, MA). Data were obtained from triplicate wells. Cytotoxic effects were determined in reference to negative controls (vehicle treated cells). Cytotoxicity was expressed as the mean percentage increase relative to the unexposed control (mean ± SD). All statistical analyses were performed using SPSS package program for Windows (Version 20, Chicago, IL). Control values were set to 0% cytotoxicity. Cytotoxicity data, where appropriate, were fitted to sigmoidal curves and a four-parameter logistic model was used to calculate the IC50 values, the concentration of material causing 50% inhibition, compared to the untreated controls. 5-Fluorouracil (5-FU) was also used as a control agent[21]^,[22].

Row | SMILES | IC50 [µM]
1 | COc1ccc(/N=N/Nc2cccc(S(N)(=O)=O)c2)cc1OC [Compound L4, 3–(3-(3,4-dimethoxyphenyl)triaz-1-en-1-yl) benzenesulfonamide] | > 300
2 | Cc1cc(C)cc(NN=Nc2cccc(S(N)(=O)=O)c2)c1 [Compound L5, 3-(3-(3,5-dimethylphenyl)triaz-1-en-1-yl)benzenesulfonamide] | 224 ± 12.4

same assay, conditions: cancer cell, 48 h, means of three independent experiments

Row | SMILES | IC50 [µM]
3 | CC(=O)[O][Ag][N](N=Nc1ccc(F)cc1)c1cccc(S(N)(=O)=O)c1 [Compound L1-Ag] | 279 ± 12.9
4 | CC(=O)[O][Cu-]1([O]C(C)=O)[N](c2cccc(S(N)(=O)=O)c2)N=[N+]1c1ccc(F)cc1 [Compound L1-Cu] | 47.1 ± 4.7

tested on: cervix carcinoma (HeLa) cells; assay: MTT cytotoxicity assay, HeLa; format: cell-based, human; conditions: Homo sapiens, HeLa, 48 h, cancer cell, MTT, means of three independent experiments
From the text: as §1, §2

Row | SMILES | IC50 [µM]
5 | COc1ccc(/N=N/Nc2cccc(S(N)(=O)=O)c2)cc1OC [Compound L4, 3–(3-(3,4-dimethoxyphenyl)triaz-1-en-1-yl) benzenesulfonamide] | > 300
6 | Cc1cc(C)cc(NN=Nc2cccc(S(N)(=O)=O)c2)c1 [Compound L5, 3-(3-(3,5-dimethylphenyl)triaz-1-en-1-yl)benzenesulfonamide] | 65.1 ± 4.5

same assay, conditions: cancer cell, MTT, 48 h, means of three independent experiments

Row | SMILES | IC50
7 | CC(=O)[O][Ag][N](N=Nc1ccc(F)cc1)c1cccc(S(N)(=O)=O)c1 [Compound L1-Ag] | > 300 µM
8 | CC(=O)[O][Cu-]1([O]C(C)=O)[N](c2cccc(S(N)(=O)=O)c2)N=[N+]1c1ccc(F)cc1 [Compound L1-Cu] | 5.02 µM and 5 µM

tested on: breast adenocarcinoma (MDA-MB-231) cells; assay: MTT cytotoxicity assay, MDA-MB-231; format: cell-based, human; conditions: Homo sapiens, MDA-MB-231, cancer cell, 48 h, means of three independent experiments
From the text: as §1, §2

Row | SMILES | IC50 [µM]
9 | COc1ccc(/N=N/Nc2cccc(S(N)(=O)=O)c2)cc1OC [Compound L4, 3–(3-(3,4-dimethoxyphenyl)triaz-1-en-1-yl) benzenesulfonamide] | 155 ± 2.6
10 | Cc1cc(C)cc(NN=Nc2cccc(S(N)(=O)=O)c2)c1 [Compound L5, 3-(3-(3,5-dimethylphenyl)triaz-1-en-1-yl)benzenesulfonamide] | 144 ± 18.6

same assay, conditions: cancer cell, 48 h, means of three independent experiments

Row | SMILES | IC50 [µM]
11 | CC(=O)[O][Ag][N](N=Nc1ccc(F)cc1)c1cccc(S(N)(=O)=O)c1 [Compound L1-Ag] | 96.8 ± 9.6
12 | CC(=O)[O][Cu-]1([O]C(C)=O)[N](c2cccc(S(N)(=O)=O)c2)N=[N+]1c1ccc(F)cc1 [Compound L1-Cu] | 117 ± 14.2

tested on: colon adenocarcinoma (HT-29) cells; assay: MTT cytotoxicity assay, HT-29; format: cell-based, human; conditions: Homo sapiens, HT-29, cancer cell, 48 h, means of three independent experiments
From the text: as §1, §2

Row | SMILES | IC50 [µM]
13 | COc1ccc(/N=N/Nc2cccc(S(N)(=O)=O)c2)cc1OC [Compound L4, 3–(3-(3,4-dimethoxyphenyl)triaz-1-en-1-yl) benzenesulfonamide] | > 300
14 | Cc1cc(C)cc(NN=Nc2cccc(S(N)(=O)=O)c2)c1 [Compound L5, 3-(3-(3,5-dimethylphenyl)triaz-1-en-1-yl)benzenesulfonamide] | 112 ± 16.5

same assay, conditions: cancer cell, 48 h, means of three independent experiments

Row | SMILES | IC50 [µM]
15 | CC(=O)[O][Ag][N](N=Nc1ccc(F)cc1)c1cccc(S(N)(=O)=O)c1 [Compound L1-Ag] | 186 ± 16.5
16 | CC(=O)[O][Cu-]1([O]C(C)=O)[N](c2cccc(S(N)(=O)=O)c2)N=[N+]1c1ccc(F)cc1 [Compound L1-Cu] | 199 ± 24.3

tested on: endometrial adenocarcinoma (ECC-1) cells; assay: MTT cytotoxicity assay, ECC-1; format: cell-based, human; conditions: Homo sapiens, ECC-1, cancer cell, 48 h, means of three independent experiments
From the text: as §1, §2

Row | SMILES | IC50 [µM]
17 | COc1ccc(/N=N/Nc2cccc(S(N)(=O)=O)c2)cc1OC [Compound L4, 3–(3-(3,4-dimethoxyphenyl)triaz-1-en-1-yl) benzenesulfonamide] | > 300
18 | Cc1cc(C)cc(NN=Nc2cccc(S(N)(=O)=O)c2)c1 [Compound L5, 3-(3-(3,5-dimethylphenyl)triaz-1-en-1-yl)benzenesulfonamide] | 132 ± 13.1

same assay, conditions: cancer cell, 48 h, means of three independent experiments

Row | SMILES | IC50 [µM]
19 | CC(=O)[O][Ag][N](N=Nc1ccc(F)cc1)c1cccc(S(N)(=O)=O)c1 [Compound L1-Ag] | 207 ± 25.6
20 | CC(=O)[O][Cu-]1([O]C(C)=O)[N](c2cccc(S(N)(=O)=O)c2)N=[N+]1c1ccc(F)cc1 [Compound L1-Cu] | 26.2 ± 2.6

tested on: prostate cancer (DU-145) cells; assay: MTT cytotoxicity assay, DU-145; format: cell-based, human; conditions: Homo sapiens, DU-145; cancer cell, MTT, 48 h, means of three independent experiments; read-out: IC50 DU-145
From the text: as §1, §2

Row | SMILES | IC50 [µM]
21 | COc1ccc(/N=N/Nc2cccc(S(N)(=O)=O)c2)cc1OC [Compound L4, 3–(3-(3,4-dimethoxyphenyl)triaz-1-en-1-yl) benzenesulfonamide] | 182 ± 23.4
22 | Cc1cc(C)cc(NN=Nc2cccc(S(N)(=O)=O)c2)c1 [Compound L5, 3-(3-(3,5-dimethylphenyl)triaz-1-en-1-yl)benzenesulfonamide] | 97.8 ± 9.7

same assay, conditions: cancer cell, MTT, 48 h, means of three independent experiments; read-out: IC50 DU-145

Row | SMILES | IC50 [µM]
23 | CC(=O)[O][Ag][N](N=Nc1ccc(F)cc1)c1cccc(S(N)(=O)=O)c1 [Compound L1-Ag] | 137 ± 16.5
24 | CC(=O)[O][Cu-]1([O]C(C)=O)[N](c2cccc(S(N)(=O)=O)c2)N=[N+]1c1ccc(F)cc1 [Compound L1-Cu] | 105 ± 13.5

tested on: prostate cancer (PC-3) cells; assay: MTT cytotoxicity assay, PC-3; format: cell-based, human; conditions: Homo sapiens, PC-3, cancer cell, 48 h, means of three independent experiments
From the text: as §1, §2

Row | SMILES | IC50 [µM]
25 | COc1ccc(/N=N/Nc2cccc(S(N)(=O)=O)c2)cc1OC [Compound L4, 3–(3-(3,4-dimethoxyphenyl)triaz-1-en-1-yl) benzenesulfonamide] | 299 ± 32.3
26 | Cc1cc(C)cc(NN=Nc2cccc(S(N)(=O)=O)c2)c1 [Compound L5, 3-(3-(3,5-dimethylphenyl)triaz-1-en-1-yl)benzenesulfonamide] | 131 ± 12.4

same assay, conditions: cancer cell, 48 h, means of three independent experiments

Row | SMILES | IC50 [µM]
27 | CC(=O)[O][Cu-]1([O]C(C)=O)[N](c2cccc(S(N)(=O)=O)c2)N=[N+]1c1ccc(F)cc1 [Compound L1-Cu] | 102 ± 10.2

tested on: normal embryonic kidney (HEK-293) cells; assay: MTT cytotoxicity assay, HEK-293; format: cell-based, human; conditions: Homo sapiens, HEK293, normal cell, 48 h, means of three independent experiments
From the text: as §1, §2

Row | SMILES | IC50 [µM]
28 | COc1ccc(/N=N/Nc2cccc(S(N)(=O)=O)c2)cc1OC [Compound L4, 3–(3-(3,4-dimethoxyphenyl)triaz-1-en-1-yl) benzenesulfonamide] | > 300
29 | Cc1cc(C)cc(NN=Nc2cccc(S(N)(=O)=O)c2)c1 [Compound L5, 3-(3-(3,5-dimethylphenyl)triaz-1-en-1-yl)benzenesulfonamide] | 103 ± 10.2

same assay, conditions: normal cell, 48 h, means of three independent experiments

Row | SMILES | IC50 [µM]
30 | CC(=O)[O][Ag][N](N=Nc1ccc(F)cc1)c1cccc(S(N)(=O)=O)c1 [Compound L1-Ag] | > 300
31 | CC(=O)[O][Cu-]1([O]C(C)=O)[N](c2cccc(S(N)(=O)=O)c2)N=[N+]1c1ccc(F)cc1 [Compound L1-Cu] | 68.8 ± 8.7

tested on: normal prostate epithelium (PNT-1A) cells; assay: MTT cytotoxicity assay, PNT-1A; format: cell-based, human; conditions: Homo sapiens, PNT1A, normal cell, 48 h, means of three independent experiments, read-out: IC50 PNT-1A
From the text: as §1, §2

Row | SMILES | IC50 [µM]
32 | COc1ccc(/N=N/Nc2cccc(S(N)(=O)=O)c2)cc1OC [Compound L4, 3–(3-(3,4-dimethoxyphenyl)triaz-1-en-1-yl) benzenesulfonamide] | 237 ± 26.8
33 | Cc1cc(C)cc(NN=Nc2cccc(S(N)(=O)=O)c2)c1 [Compound L5, 3-(3-(3,5-dimethylphenyl)triaz-1-en-1-yl)benzenesulfonamide] | 177 ± 20.5

same assay, conditions: normal cell, 48 h, means of three independent experiments, read-out: IC50 PNT-1A

Row | SMILES | IC50 [µM]
34 | CC(=O)[O][Ag][N](N=Nc1ccc(F)cc1)c1cccc(S(N)(=O)=O)c1 [Compound L1-Ag] | 210 ± 20.9
35 | CC(=O)[O][Cu-]1([O]C(C)=O)[N](c2cccc(S(N)(=O)=O)c2)N=[N+]1c1ccc(F)cc1 [Compound L1-Cu] | 76.5 ± 8.5

tested on: normal retinal pigment epithelium (ARPE-19) cells; assay: MTT cytotoxicity assay, ARPE-19; format: cell-based, human; conditions: Homo sapiens, ARPE-19, normal cell, 48 h, means of three independent experiments
From the text: as §1, §2

Row | SMILES | IC50 [µM]
36 | COc1ccc(/N=N/Nc2cccc(S(N)(=O)=O)c2)cc1OC [Compound L4, 3–(3-(3,4-dimethoxyphenyl)triaz-1-en-1-yl) benzenesulfonamide] | > 300
37 | Cc1cc(C)cc(NN=Nc2cccc(S(N)(=O)=O)c2)c1 [Compound L5, 3-(3-(3,5-dimethylphenyl)triaz-1-en-1-yl)benzenesulfonamide] | > 300

same assay, conditions: normal cell, 48 h, means of three independent experiments

Row | SMILES | IC50 [µM]
38 | CC(=O)[O][Ag][N](N=Nc1ccc(F)cc1)c1cccc(S(N)(=O)=O)c1 [Compound L1-Ag] | > 300
39 | CC(=O)[O][Cu-]1([O]C(C)=O)[N](c2cccc(S(N)(=O)=O)c2)N=[N+]1c1ccc(F)cc1 [Compound L1-Cu] | 119 ± 13.5
